Patent publication US20030166202A1, “P450 Monooxygenases of the cyp79 family” (priority 2000, published 2003)

How the values were obtained:
CYP79A2 = target: T1, CYP79A2 (Arabidopsis thaliana, UniProt Q9FLC8); assay: CYP79A2 activity in E. coli spheroplasts reconstituted with NADPH:cytochrome P450 oxidoreductase; conditions: TLC or GC-MS detection
T1 sequence (Q9FLC8 7-529 limits assumed): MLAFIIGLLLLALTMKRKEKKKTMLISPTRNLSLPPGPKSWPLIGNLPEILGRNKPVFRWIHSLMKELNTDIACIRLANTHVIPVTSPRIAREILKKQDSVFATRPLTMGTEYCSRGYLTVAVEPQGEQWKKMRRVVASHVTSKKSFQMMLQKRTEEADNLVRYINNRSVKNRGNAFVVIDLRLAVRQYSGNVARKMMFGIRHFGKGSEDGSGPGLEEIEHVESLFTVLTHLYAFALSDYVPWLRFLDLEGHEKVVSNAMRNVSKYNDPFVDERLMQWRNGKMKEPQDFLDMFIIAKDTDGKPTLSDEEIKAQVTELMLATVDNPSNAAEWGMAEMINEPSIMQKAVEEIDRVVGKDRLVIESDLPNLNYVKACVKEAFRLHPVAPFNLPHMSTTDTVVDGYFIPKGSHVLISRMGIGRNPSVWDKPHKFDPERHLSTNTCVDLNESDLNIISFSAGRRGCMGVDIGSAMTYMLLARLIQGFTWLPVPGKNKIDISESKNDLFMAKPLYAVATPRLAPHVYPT

CYP79D1 = CYP79D1 (Manihot esculenta, UniProt Q9M7B8)
Experimental: Isolated, recombinant CYP79D1 is reconstituted and its catalytic activity determined in vitro using reaction mixtures with a total volume of 30 μl containing 2.5 pmol CYP79D1, 0.05 U NADPH P450-oxidoreductase (Benveniste et al, Biochem J 235: 365-373, 1986), 10.6 mM L-α-dioleyl phosphatidylcholine, 0.35 μCi [U-^14C]-L-amino acid (L-Val, L-Ile, L-Leu, L-Tyr or L-Phe; Amersham, Sweden), 1 mM NADPH, 0.1 M NaCl and 20 mM KPi pH 7.9. In assays containing ^14C-L-valine or ^14C-L-isoleucine, different amounts of unlabeled L- and D-amino acids (0-6 mM) are added. After incubation for 10 minutes at 30° C. the products formed are extracted into 60 μl ethyl acetate and separated on TLC sheets (Merck Kieselgel 60F254) using n-pentane/diethyl ether (50:50, v/v) or toluene/ethyl acetate (5:1, v/v) as eluents for aliphatic compounds and aromatic compounds, respectively. ^14C-labeled oximes are visualized and quantified using a STORM 840 phosphor imager (Molecular Dynamics, CA, USA). The activity of CYP79D1 is additionally measured in the presence of the inhibitors tetcyclasis, ABT and DPI under the same conditions as described above. For in vivo activity assays 200 μl P. pastoris cells are pelleted and resuspended in 100 μl 50 mM Tricine pH 7.9 and 0.35 μCi [U-^14C]-L-valine or L-isoleucine. After incubation for 30 minutes at 30° C. the cells are extracted with ethyl acetate and the products formed are analyzed as above.
CYP79D1 is reconstituted with sorghum NADPH-P450 oxidoreductase in the presence of high amounts of the lipid L-α-dioleyl phosphatidylcholine and 100 mM NaCl. […] To examine the effect of inhibitors on isolated CYP79D1, reconstitutions are performed in the presence of tetcyclasis, ABT and DPI using the same conditions as for cassava microsomes.

CYP79E2 = assay: Substrate specificity / reconstitution of CYP79E2; assay type: biochemical, Triglochin maritima
Experimental: Investigations into the substrate specificity of CYP79D1, CYP79D2, CYP79E1, CYP79E2, CYP79A2, CYP79B2, CYP79B5 and CYP79F1 are carried out in E. coli spheroplasts reconstituted with sorghum NADPH-cytochrome P450 oxidoreductase in the presence of high amounts of lipids. L-α-dioleyl phosphatidyl choline and L-α-dilauroyl phosphatidyl choline are preferred lipids for the reconstitution. […] Neither L-methionine, L-tryptophane nor L-tyrosine are metabolized by CYP79A2. Neither phenylalanine nor tyrosine are metabolized by CYP79B2. Neither L-tryptophane, L-phenylalanine nor L-tyrosine are metabolized by CYP79F1. D-Amino acids are not converted into oximes by CYP79D1, CYP79D2, CYP79E1 and CYP79E2. Depending on the nature of the substrate, substrate specificity may also be determined using intact P. pastoris cells or intact E. coli cells.
Expression levels of the different constructs are determined by CO difference spectroscopy and quantified using an extinction coefficient ε450-490 of 91 mM^−1cm^−1 (Omura et al, J. Biol. Chem. 239: 2370-2378, 1964). Spectra are made from 100 μl or 500 μl whole E. coli cells or using the rich phases from Triton X-114 phase partitioning solubilized in 50 mM KH2PO4/K2HPO4 pH 7.5, 2 mM EDTA, 20% glycerol, 0.2% Triton X-100 (total volume: 1 ml). […] In vitro activities are measured in reconstitution experiments using the rich phase from phase partitioning. […]

Sequence of CYP79D1 (Q9M7B8 2-542): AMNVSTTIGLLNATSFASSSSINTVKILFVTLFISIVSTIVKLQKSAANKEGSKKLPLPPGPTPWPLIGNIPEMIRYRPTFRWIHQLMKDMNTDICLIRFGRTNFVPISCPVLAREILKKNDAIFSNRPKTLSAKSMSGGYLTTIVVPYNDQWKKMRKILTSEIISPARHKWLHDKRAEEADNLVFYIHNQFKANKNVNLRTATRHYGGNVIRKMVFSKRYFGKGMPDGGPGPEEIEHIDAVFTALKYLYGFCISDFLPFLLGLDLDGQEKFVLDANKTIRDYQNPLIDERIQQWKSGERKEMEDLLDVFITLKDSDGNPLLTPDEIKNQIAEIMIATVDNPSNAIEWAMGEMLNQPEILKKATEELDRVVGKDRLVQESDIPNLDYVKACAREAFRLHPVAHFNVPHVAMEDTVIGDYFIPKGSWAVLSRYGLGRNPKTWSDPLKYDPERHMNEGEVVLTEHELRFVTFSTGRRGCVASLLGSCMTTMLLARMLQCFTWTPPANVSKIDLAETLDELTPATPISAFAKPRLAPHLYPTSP

N[C@@H](Cc1ccc(O)cc1)C(=O)O [L-tyrosine]
production of the respective aldoxime by CYP79A2 (CYP79A2): does not result in production of detectable amounts of the respective aldoximes | metabolism relative to that observed with L-valine (detection level) (CYP79D1): < 0.8% | conversion to the corresponding oxime by CYP79E2 (CYP79E2): found to convert | product accumulation in reconstitution of CYP79E2 with CYP71E1 (CYP79E2; with NADPH, NADPH-cytochrome P450 oxidoreductase, CYP71E1): considerable amounts of p-hydroxyphenylacetonitrile and p-hydroxybenzaidehyde accumulate
